In experiment [1] the target is T1, Polyunsaturated fatty acid 5-lipoxygenase (Rattus norvegicus, UniProt P12527).
T1 sequence (P12527 whole entry): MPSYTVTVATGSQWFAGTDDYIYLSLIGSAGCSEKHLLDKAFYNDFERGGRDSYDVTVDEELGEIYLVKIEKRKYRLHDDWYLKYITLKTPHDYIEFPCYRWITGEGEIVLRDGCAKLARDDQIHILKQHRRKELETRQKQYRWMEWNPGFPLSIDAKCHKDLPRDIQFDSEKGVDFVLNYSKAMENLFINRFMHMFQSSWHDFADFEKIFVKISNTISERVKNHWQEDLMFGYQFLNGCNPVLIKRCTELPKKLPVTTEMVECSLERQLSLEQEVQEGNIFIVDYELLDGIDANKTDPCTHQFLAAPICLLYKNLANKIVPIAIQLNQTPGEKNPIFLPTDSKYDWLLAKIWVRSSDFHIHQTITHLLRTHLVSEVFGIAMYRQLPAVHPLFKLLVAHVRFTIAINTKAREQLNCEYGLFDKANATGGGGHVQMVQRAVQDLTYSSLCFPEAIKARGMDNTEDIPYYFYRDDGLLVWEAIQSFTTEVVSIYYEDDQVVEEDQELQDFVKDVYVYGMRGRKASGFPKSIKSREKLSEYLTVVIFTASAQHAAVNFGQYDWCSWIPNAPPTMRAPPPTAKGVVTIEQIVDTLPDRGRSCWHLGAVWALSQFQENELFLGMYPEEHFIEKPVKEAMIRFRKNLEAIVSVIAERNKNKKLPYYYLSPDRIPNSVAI
Description: In vitro inhibition of RBL-1 5-lipoxygenase; Value ranges from 1.0-2.4. The experiment is classed as cell-based.

The test system of experiment [2] is Rattus norvegicus. Description: Inhibition of monocyte accumulation (DNA content) in a rat pleural exudate model of inflammation at 45 ug administered perorally. The experiment is classed as functional.
Experiment [3] has as its system Rattus norvegicus. Description: Inhibition of monocyte accumulation (exudate volume) in a rat pleural exudate model of inflammation at 45 ug administered perorally. The experiment is classed as functional.
In experiment [4] the target is T1, Polyunsaturated fatty acid 5-lipoxygenase. Description: In vitro inhibition of RBL-1 5-lipoxygenase; Value ranges from 7.5-11.8. The experiment is classed as cell-based.
Experiment [5] has as its system Rattus norvegicus. Description: (§1) In vivo activity against the release of SRS(slow releasing substance)-A in a rat passive intraperitoneally. Further details: concentration or dose not given beside the values. The experiment is classed as functional.
Experiment [6] has as its target T1, Polyunsaturated fatty acid 5-lipoxygenase. Description: In vitro inhibition of RBL-1 5-lipoxygenase; Value ranges from 0.4-2.2. The experiment is classed as cell-based.
Experiment [7] has the same target. Description: In vitro inhibition of RBL-1 5-lipoxygenase; Value ranges from 4.9-11.6. The experiment is classed as cell-based.
For experiment [8] the target is unchanged. Description: In vitro inhibition of RBL-1 5-lipoxygenase. In kind it is cell-based.
Experiment [9] has the same target. Description: In vitro inhibition of RBL-1 5-lipoxygenase; Value ranges from 3.3-3.5. The experiment is classed as cell-based.
For experiment [10], the system named is Rattus norvegicus. Description: Inhibition of monocyte accumulation (exudate volume) in a rat pleural exudate model of inflammation at 24 ug/kg administered perorally. The experiment is classed as functional. Particulars: po.
Experiment [11] concerns Rattus norvegicus. Description: Inhibition of monocyte accumulation (exudate volume) in a rat pleural exudate model of inflammation at 3 ug/kg administered perorally. The experiment is classed as functional. Particulars: po.
In experiment [12] the test system is Rattus norvegicus. Description: Inhibition of monocyte accumulation (exudate volume) in a rat pleural exudate model of inflammation at 6 ug/kg administered perorally. In kind it is functional. Particulars: po.
Experiment [13] has as its target T1, Polyunsaturated fatty acid 5-lipoxygenase. Description: In vitro inhibition of RBL-1 5-lipoxygenase; Value ranges from 1.9-2.4. The experiment is classed as cell-based.
In experiment [14] the target is T2, Polyunsaturated fatty acid 5-lipoxygenase (Rattus norvegicus) (UniProt P12527).
T2 sequence (whole entry): T1 sequence (P12527 whole entry)
Description: In vitro inhibition of RBL-1 5-lipoxygenase at 20 uM. The experiment is classed as cell-based.

Experiment [15] concerns the target T1, Polyunsaturated fatty acid 5-lipoxygenase. Description: In vitro inhibition of RBL-1 5-lipoxygenase; Value ranges from 0.3-1.6. In kind it is cell-based.
Experiment [16] has the same target. Description: In vitro inhibition of RBL-1 5-lipoxygenase; Value ranges from […]. In kind it is cell-based.
The target is the same in experiment [17]. Description: In vitro inhibition of RBL-1 5-lipoxygenase; Value ranges from 1.8-5.7. In kind it is cell-based.
Experiment [18] has the same target. Description: In vitro inhibition of RBL-1 5-lipoxygenase; Value ranges from 1.3-2.8. The experiment is classed as cell-based.
For experiment [19] the target is unchanged. Description: In vitro inhibition of RBL-1 5-lipoxygenase; Value ranges from 4.0-6.4. The experiment is classed as cell-based.
For experiment [20] the target is unchanged. Description: In vitro inhibition of RBL-1 5-lipoxygenase; Value ranges from 2.46-2.63. The experiment is classed as cell-based.
For experiment [21] the target is unchanged. Description: In vitro inhibition of RBL-1 5-lipoxygenase; Value ranges from 0.9-4.0. In kind it is cell-based.
For experiment [22] the target is unchanged. Description: In vitro inhibition of RBL-1 5-lipoxygenase; Value ranges from 1.4-3.2. The experiment is classed as cell-based.
Experiment [23] shares this target. Description: In vitro inhibition of RBL-1 5-lipoxygenase; Value ranges from 3.8-7.1. The experiment is classed as cell-based.
Experiment [24] has the same target. Description: In vitro inhibition of RBL-1 5-lipoxygenase; Value ranges from 1.8-2.8. In kind it is cell-based.
Experiment [25] shares this target. Description: In vitro inhibition of RBL-1 5-lipoxygenase; Value ranges from 1.0-1.5. The experiment is classed as cell-based.
For experiment [26] the target is unchanged. Description: In vitro inhibition of RBL-1 5-lipoxygenase; Value ranges from 1.0-1.7. In kind it is cell-based.
The test system of experiment [27] is Rattus norvegicus. The description is as §1. In kind it is functional.
Experiment [28] concerns the target T1, Polyunsaturated fatty acid 5-lipoxygenase. Description: In vitro inhibition of RBL-1 5-lipoxygenase; Value ranges from 1.7-2.6. The experiment is classed as cell-based.
Experiment [29] shares this target. Description: In vitro inhibition of RBL-1 5-lipoxygenase; Value ranges from 1.1-1.6. In kind it is cell-based.

A value given as a limit tells only on which side of the number the result lay.

Usually IC50 stands for the midpoint of a concentration-inhibition curve. For orientation: Inhibition means the share of the control response that was lost under treatment. One may read the inhibition in vivo as the relative decrease from the control value, in per cent. For orientation: inhibition means the percentage by which the read-out fell short of the control.

For `COc1cccc(Cc2nc3c(C)ccc(O)c3[nH]2)c1`, the IC50 in [1] amounted to 1700 nM.

`C[C@@H]1C[C@H]2[C@@H]3CCC4=CC(=O)C=C[C@]4(C)[C@@]3(F)[C@@H](O)C[C@]2(C)[C@@]1(O)C(=O)CO` [DEXAMETHASONE]: the Inhibition in the experiment on Rattus norvegicus [2] is reported as 71%; in the experiment on Rattus norvegicus [3] it was 80%.

Take `COc1cc(Cc2nc3c(C)ccc(O)c3[nH]2)cc(OC)c1OC.Cl`: the IC50 in [4] was found to be 9700 nM. In the experiment on Rattus norvegicus [5], this molecule returned an Inhibition of 59%.

The molecule `O=C1CCN(c2ccccc2)N1` [PHENIDONE] gave an Inhibition with Rattus norvegicus [5] of 70%.

In turn, `Cc1ccc(O)c2nc(Cc3ccccc3)[nH]c12` yielded an IC50 in experiment [6] of 1200 nM.

The molecule `Cc1ccc(O)c2[nH]c(Cc3ccc(O)cc3)nc12.Cl` had an IC50 in experiment [7] of 6900 nM. Further, in the experiment with Rattus norvegicus [5], the Inhibition was found to be 58%.

For `Oc1cccc2[nH]c(Cc3ccccc3)nc12`, in experiment [8], the midpoint of inhibition, the IC50, lay at 20000 nM.

As for `CCCc1nc2c(C)ccc(O)c2[nH]1`, the IC50 in experiment [8] is roughly 10000 nM.

With `COc1ccccc1Cc1nc2c(C)ccc(O)c2[nH]1.Cl`, in [9], the IC50 came out at 3400 nM. In the experiment with Rattus norvegicus [5], this molecule registered an Inhibition of 64%.

Consider `Cc1cc(C(C)(C)C)c(O)c2[nH]c(C(F)(F)F)nc12`, for which, in the experiment with Rattus norvegicus [10], the inhibition in vivo at 0.024 mg/kg is 48%. Also, the inhibition in vivo at 0.003 mg/kg with Rattus norvegicus [11] was determined as 52%. Testing at 0.006 mg/kg in the experiment on Rattus norvegicus [12] gave an inhibition in vivo of 49%.

Consider `Cc1ccc(O)c2[nH]c(Cc3cccs3)nc12`, for which the IC50 in experiment [13] stood at 2100 nM.

In experiment [14], `Cc1ccc(O)c2[nH]c(Cc3ccc4ccccc4c3)nc12` displayed an inhibition greater than 90%.

On to `Cc1ccc(O)c2[nH]c(Cc3ccc(Cl)cc3)nc12`, for which half-maximal inhibition in experiment [15] (IC50) was put at 1000 nM.

`CCOc1ccc(Cc2nc3c(C)ccc(O)c3[nH]2)cc1`: in experiment [16], it took 3000 nM to reach half-maximal inhibition (IC50).

`NC1=NN(c2cccc(C(F)(F)F)c2)CC1` [BW-755C] returned an Inhibition in the experiment with Rattus norvegicus [5] of 25%.

`Cc1ccc(O)c2[nH]c(-c3ccco3)nc12` registered an IC50 in [17] of 3300 nM.

`Cc1ccc(O)c2[nH]c(CCc3ccccc3)nc12` came in with a concentration for half-maximal inhibition (IC50) in experiment [18] of 2100 nM.

As for `Cc1ccc(O)c2[nH]c(-c3cccc(C(F)(F)F)c3)nc12`, the inhibition in [14] was greater than 90%.

On to `CC1=C(C)C(=O)C(CCCCC#CCCCC#CCO)=C(C)C1=O` [DOCEBENONE], for which the IC50 in experiment [8] is 2000 nM. The same molecule showed an Inhibition in the experiment on Rattus norvegicus [5] of 77%.

As to `Cc1ccc(O)c2nc(Cc3cccnc3)[nH]c12`, in experiment [19], half-maximal inhibition (IC50) was put at 5000 nM.

Take `Cc1ccc(Cc2nc3c(O)ccc(C)c3[nH]2)cc1`: in experiment [20], the IC50 was found to be 2540 nM.

Take `COc1ccc(Cc2nc3c(C)cc(C(C)(C)C)c(O)c3[nH]2)cc1`: the midpoint of inhibition in experiment [21], the IC50, lay at 2200 nM.

As for `COc1ccc(-c2nc3c(C)ccc(O)c3[nH]2)cc1`, half-maximal inhibition in experiment [22] (IC50) was put at 2200 nM.

For the molecule `COc1ccc(Cc2nc3c(O)cccc3[nH]2)cc1`, in experiment [8], the IC50 worked out at 20000 nM.

`COc1ccc(Cc2nc3c(C)ccc(O)c3[nH]2)cc1OC.Cl` registered an IC50 in experiment [23] of 5200 nM. Also, the Inhibition with Rattus norvegicus [5] turned out to be 55%.

For the molecule `Cc1ccc(O)c2[nH]c(Cc3cccc4ccccc34)nc12`, the midpoint of inhibition in experiment [24], the IC50, lay at 2300 nM.

In experiment [25], `Cc1ccc(O)c2[nH]c(-c3ccccc3)nc12` yielded an IC50 of 1200 nM.

With `Cc1ccc(O)c2[nH]c(-c3ccc(N(C)C)cc3)nc12`, in experiment [26], the IC50 was 1300 nM.

Regarding `COc1ccc(Cc2nc3c(C)ccc(O)c3[nH]2)cc1.Cl`, the Inhibition in the experiment with Rattus norvegicus [27] worked out at 58%. This molecule yielded an IC50 in experiment [28] of 2100 nM.

For the molecule `CC(Cc1ccc(O)c(O)c1)C(C)Cc1ccc(O)c(O)c1` (stereo not given) [NORDIHYDROGUAIARETIC ACID], the Inhibition in the experiment on Rattus norvegicus [5] is listed as 64%.

`Cc1cc(C(C)(C)C)c(O)c2[nH]c(Cc3ccccc3)nc12` displayed an IC50 in [29] of 1300 nM.

Values taken from ChEMBL document CHEMBL1123560, “Novel 1H-benzimidazol-4-ols with potent 5-lipoxygenase inhibitory activity” (J Med Chem, 1987).
